Target: human ACC2 (Homo sapiens (Human), UniProt O00763)
Test: ACC2 assay: spectrophotometric 384 well assay (coupled lactate dehydrogenase/pyruvate kinase)
Assay type: biochemical
Conditions: hACC2 construct lacking the 128 N-terminal amino acids, 25° C., 340 nm
Description: Spectrophotometric 384 Well Assay
Malonyl CoA formation by acetyl CoA carboxylases is stoichiometrically linked to the consumption of ATP. ACC2 activity is measured in a […] kinetic method measuring ADP generated during the ACC reaction using a coupled lactate dehydrogenase/pyruvate kinase reaction.
For biological testing, a human ACC2 construct which lacks the 128 amino acids at the N-terminus for increased solubility (nt 385-6966 in Genbank entry AJ575592) is cloned. The protein is then expressed in insect cells using a baculoviral expression system. Protein purification is performed by anion exchange.
All compounds are dissolved in dimethyl sulfoxide (DMSO) to a concentration of 10 mM.
Assay reactions are then carried out in 384-well plates, with hACC2 in an appropriate dilution and at final assay concentrations (f.c.) of 100 mM Tris (pH 7.5), 10 mM trisodium citrate, 25 mM KHCO3, 10 mM MgCl2, 0.5 mg/ml BSA, 3.75 mM reduced L-glutathione, 15 U/ml lactate dehydrogenase, 0.5 mM phosphoenolpyruvate, 15 U/ml pyruvate kinase, compounds at different concentrations at final DMSO concentrations of 1%.
The enzymatic reaction is then started by addition of a mixture of NADH, acetyl Coenzyme A (both […].) and ATP (500 uM f.c.). The decrease of the optical density (slope S) is then determined at 25° C. at a wavelength of 340 nm over 15 minutes in a spectrophotometric reader.
Each assay microtiter plate contains wells with vehicle instead of compound as controls for the non-inhibited enzyme (100% CTL; ‘HIGH’) and wells without acetyl-CoA as controls for non-specific NADH degradation (0% CTL; ‘LOW’).
The slope S is used for calculation of % CTL=(S(compound)−S(‘LOW’))/(S(‘HIGH’)−S(‘LOW’))*100. Compounds will give values between 100% CTL (no inhibition) and 0% CTL (complete inhibition).
For IC50 value determination, the sample slope in the presence of the test compound after subtraction of the low controls (S(compound)−S(‘LOW’)) are used.
An IC50 value is derived from the compound slopes at different dosages after subtraction of the low controls (S(compound)-S(‘LOW’)) by non-linear regression curve fitting (equation y=(A+((B−A)/(1+((C/x)^D))))).

Chain of human ACC2 (O00763 129-2458): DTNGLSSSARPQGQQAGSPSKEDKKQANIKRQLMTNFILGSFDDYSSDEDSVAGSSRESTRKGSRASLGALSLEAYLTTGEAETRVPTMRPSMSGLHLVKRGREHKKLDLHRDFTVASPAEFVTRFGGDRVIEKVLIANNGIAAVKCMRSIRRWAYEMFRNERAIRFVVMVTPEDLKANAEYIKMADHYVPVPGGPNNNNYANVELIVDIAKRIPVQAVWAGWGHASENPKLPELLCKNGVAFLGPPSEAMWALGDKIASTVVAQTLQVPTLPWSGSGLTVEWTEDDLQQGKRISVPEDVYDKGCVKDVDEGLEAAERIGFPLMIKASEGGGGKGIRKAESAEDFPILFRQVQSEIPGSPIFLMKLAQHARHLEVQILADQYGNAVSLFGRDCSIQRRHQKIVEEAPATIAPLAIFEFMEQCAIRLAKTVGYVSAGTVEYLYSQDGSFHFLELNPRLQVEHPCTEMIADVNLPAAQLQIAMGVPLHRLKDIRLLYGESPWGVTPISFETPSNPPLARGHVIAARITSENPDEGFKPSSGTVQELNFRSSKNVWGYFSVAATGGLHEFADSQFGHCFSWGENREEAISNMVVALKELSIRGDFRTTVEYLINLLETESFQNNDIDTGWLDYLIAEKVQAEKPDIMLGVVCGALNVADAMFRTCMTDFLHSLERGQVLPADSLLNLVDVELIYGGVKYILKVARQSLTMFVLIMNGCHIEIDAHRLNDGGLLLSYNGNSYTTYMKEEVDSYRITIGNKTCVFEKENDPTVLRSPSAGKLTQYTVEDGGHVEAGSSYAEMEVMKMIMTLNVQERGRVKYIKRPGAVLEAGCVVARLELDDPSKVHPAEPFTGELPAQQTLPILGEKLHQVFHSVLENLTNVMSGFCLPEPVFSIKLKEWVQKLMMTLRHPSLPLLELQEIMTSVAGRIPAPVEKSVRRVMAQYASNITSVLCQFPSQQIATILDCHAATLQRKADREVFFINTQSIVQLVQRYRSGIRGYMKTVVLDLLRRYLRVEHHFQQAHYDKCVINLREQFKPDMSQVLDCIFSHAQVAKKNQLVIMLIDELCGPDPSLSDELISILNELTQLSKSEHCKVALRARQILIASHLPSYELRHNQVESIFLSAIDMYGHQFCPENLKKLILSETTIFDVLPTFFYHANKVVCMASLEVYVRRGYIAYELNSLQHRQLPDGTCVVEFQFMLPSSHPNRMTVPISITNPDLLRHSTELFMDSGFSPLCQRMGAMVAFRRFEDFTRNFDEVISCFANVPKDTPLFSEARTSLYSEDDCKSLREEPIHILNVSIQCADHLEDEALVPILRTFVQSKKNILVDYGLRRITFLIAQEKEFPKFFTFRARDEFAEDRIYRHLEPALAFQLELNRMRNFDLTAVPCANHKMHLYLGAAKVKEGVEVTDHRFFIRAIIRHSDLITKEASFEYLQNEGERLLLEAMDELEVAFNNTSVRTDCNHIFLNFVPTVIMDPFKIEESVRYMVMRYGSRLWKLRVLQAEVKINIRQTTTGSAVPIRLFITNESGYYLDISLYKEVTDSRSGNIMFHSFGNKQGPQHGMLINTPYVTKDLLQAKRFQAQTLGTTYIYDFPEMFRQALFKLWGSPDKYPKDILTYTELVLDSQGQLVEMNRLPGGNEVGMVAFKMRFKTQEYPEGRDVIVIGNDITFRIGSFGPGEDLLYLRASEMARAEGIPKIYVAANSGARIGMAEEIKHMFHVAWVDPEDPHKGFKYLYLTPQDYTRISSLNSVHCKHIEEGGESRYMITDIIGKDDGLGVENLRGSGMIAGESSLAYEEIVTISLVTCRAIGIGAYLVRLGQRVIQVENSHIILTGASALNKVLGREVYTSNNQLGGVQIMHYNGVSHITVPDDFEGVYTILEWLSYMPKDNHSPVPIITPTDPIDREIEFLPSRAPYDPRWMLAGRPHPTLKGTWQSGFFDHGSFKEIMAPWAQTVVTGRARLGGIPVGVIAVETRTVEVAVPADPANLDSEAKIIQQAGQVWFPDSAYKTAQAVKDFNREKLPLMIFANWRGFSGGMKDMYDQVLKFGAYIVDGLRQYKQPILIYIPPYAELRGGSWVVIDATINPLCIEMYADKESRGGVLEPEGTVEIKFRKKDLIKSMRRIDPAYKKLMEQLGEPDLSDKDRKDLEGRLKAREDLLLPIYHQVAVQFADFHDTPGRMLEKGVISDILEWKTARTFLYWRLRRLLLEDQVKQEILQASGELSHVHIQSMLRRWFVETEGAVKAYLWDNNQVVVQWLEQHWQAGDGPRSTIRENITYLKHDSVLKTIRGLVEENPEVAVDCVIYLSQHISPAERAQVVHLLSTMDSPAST

| Compound | IC50 |
| --- | --- |
| CC(=O)NC(C)c1ccc(CN2CCc3cc(C(F)(F)F)ccc3C2)cc1 (centres unmarked) [Example 1.001, N-{1-[4-(6-Trifluoromethyl-3,4-dihydro-1H-isoquinolin-2-ylmethyl)-phenyl]-ethyl}-acetamide] | 0.293 µM |
| COC(=O)c1ccc2c(c1)CCN(Cc1ccc(C(C)NC(C)=O)cc1)C2 (centres unmarked) [Example 1.002] | 0.524 µM |
| CC(=O)NC(C)c1ccc(CN2CCc3cc(OC(F)(F)F)ccc3C2)cc1 (centres unmarked) [Example 1.007] | 0.291 µM |
| CC(=O)NC(C)c1ccc(CN2CCc3cc(OCC(C)C)ccc3C2)cc1 (centres unmarked) [Example 1.009] | 0.102 µM |
| CC(=O)NC(C)c1ccc(CN2CCc3cc(OCC(F)F)ccc3C2)cc1 (centres unmarked) [Example 1.010] | 0.614 µM |
| CC(=O)NC(C)c1ccc(CN2CCc3cc(OCC4CCC4)ccc3C2)cc1 (centres unmarked) [Example 1.011] | 0.067 µM |
| CC(=O)NC(C)c1ccc(CN2CCc3cc(OCCC4CC4)ccc3C2)cc1 (centres unmarked) [Example 1.012] | 0.052 µM |
| CC(=O)NC(C)c1ccc(CN2CCc3cc(OCCC(F)(F)F)ccc3C2)cc1 (centres unmarked) [Example 1.014] | 0.095 µM |
| CC(=O)NC(C)c1ccc(CN2CCc3cc(OCC4CC(F)(F)C4)ccc3C2)cc1 (centres unmarked) [Example 1.015] | 0.047 µM |
| CC(=O)NC(C)c1ccc(CN2CCc3cc(OC4CCC4)ccc3C2)cc1 (centres unmarked) [Example 1.020] | 0.11 µM |
| CC(=O)NC(C)c1ccc(CN2CCc3cc(OC(C)C)ccc3C2)cc1 (centres unmarked) [Example 1.021] | 0.11 µM |
| CC(=O)NC(C)c1ccc(CN2CCc3cc(C(F)F)ccc3C2)cc1 (centres unmarked) [Example 1.028] | 0.789 µM |
| CC(=O)NC(C)c1ccc(CN2CCc3c(ccc4c3OCCO4)C2)cc1 (centres unmarked) [Example 1.029] | 0.228 µM |
| COc1c(OCc2ccccc2)ccc2c1CCN(Cc1ccc(C(C)NC(C)=O)cc1)C2 (centres unmarked) [Example 1.036] | 0.101 µM |
| CCCOc1ccc2c(c1)CCN(Cc1ccc([C@H](C)NC(=O)C3CC3)cc1)C2 [Example 1.041] | 0.057 µM |
| C[C@H](NC(=O)C1CC1)c1ccc(CN2CCc3cc(OCC4CC4)ccc3C2)cc1 [Example 1.042] | 0.065 µM |
| CCOc1ccc2c(c1)CCN(Cc1ccc([C@H](C)NC(=O)C3CC3)cc1)C2 [Example 1.043] | 0.18 µM |

| Compound | IC50 |
| --- | --- |
| C[C@H](NC(=O)C1CC1)c1ccc(CN2CCc3cc(OC4CCC4)ccc3C2)cc1 [Example 1.044] | 0.193 µM |
| C[C@H](NC(=O)C1CC1)c1ccc(CN2CCc3cc(OCCC(F)(F)F)ccc3C2)cc1 [Example 1.045] | 0.083 µM |
| C[C@H](NC(=O)C1CC1)c1ccc(CN2CCc3cc(OCC(F)F)ccc3C2)cc1 [Example 1.046] | 0.163 µM |
| CC(C)Oc1ccc2c(c1)CCN(Cc1ccc([C@H](C)NC(=O)C3CC3)cc1)C2 [Example 1.047] | 0.071 µM |
| COc1c(OCC2CC2)ccc2c1CCN(Cc1ccc([C@H](C)NC(=O)C3CC3)cc1)C2 [Example 1.048] | 0.139 µM |
| C[C@H](NC(=O)C1CC1)c1ccc(CN2CCc3cc(OC[C@@H]4CC4(F)F)ccc3C2)cc1 [Example 1.051] | 0.031 µM |
| C[C@H](NC(=O)C1CC1)c1ccc(CN2CCc3cc(OC[C@H]4CC4(F)F)ccc3C2)cc1 [Example 1.052] | 0.024 µM |
| COc1c(OCC2CC2(F)F)ccc2c1CCN(Cc1ccc([C@H](C)NC(=O)C3CC3)cc1)C2 (some centres unmarked) [Example 1.053] | 0.142 µM |
| COc1c(OCCC(F)(F)F)ccc2c1CCN(Cc1ccc([C@H](C)NC(=O)C3CC3)cc1)C2 [Example 1.054] | 0.269 µM |
| COc1c(OCC2CCC2)ccc2c1CCN(Cc1ccc([C@H](C)NC(=O)C3CC3)cc1)C2 [Example 1.055] | 0.041 µM |
| COc1c(OCC2CC(F)(F)C2)ccc2c1CCN(Cc1ccc([C@H](C)NC(=O)C3CC3)cc1)C2 [Example 1.056] | 0.051 µM |
| COc1c(OCC(C)C)ccc2c1CCN(Cc1ccc([C@H](C)NC(=O)C3CC3)cc1)C2 [Example 1.057] | 0.102 µM |
| COc1c(OCCC2CC2)ccc2c1CCN(Cc1ccc([C@H](C)NC(=O)C3CC3)cc1)C2 [Example 1.058] | 0.137 µM |
| C[C@H](NC(=O)C1CC1)c1ccc(CN2Cc3ccc(OCC4CC4)cc3C(F)C2)cc1 (some centres unmarked) [Example 1.059] | 0.058 µM |
| C[C@H](NC(=O)C1CC1)c1ccc(CN2Cc3ccc(OCC4CC4(F)F)cc3C(F)C2)cc1 (some centres unmarked) [Example 1.060] | 0.029 µM |
| C[C@H](NC(=O)C1CC1)c1ccc(CN2Cc3ccc(OCC4CC4(F)F)cc3C(O)C2)cc1 (some centres unmarked) [Example 1.061] | 0.14 µM |

Now from value to compound:

| IC50 | Compound |
| --- | --- |
| 0.265 µM | CC(=O)NC(C)c1ccc(CN2CCc3cc(Br)ccc3C2)cc1 (centres unmarked) [Example 1.003] |
| 0.206 µM | CC(=O)NC(C)c1ccc(CN2CCc3c(Cl)cccc3C2)cc1 (centres unmarked) [Example 1.004] |
| 0.252 µM | CC(=O)NC(C)c1ccc(CN2CCc3c(cccc3OC(C)C)C2)cc1 (centres unmarked) [Example 1.005] |
| 0.878 µM | CC(=O)NC(C)c1ccc(CN2CCc3c(cccc3OCC3CC3)C2)cc1 (centres unmarked) [Example 1.006] |
| 0.492 µM | CC(=O)NC(C)c1ccc(CN2CCc3c(cccc3OCC3CC3(F)F)C2)cc1 (centres unmarked) [Example 1.008] |
| 0.146 µM | CC(=O)NC(C)c1ccc(CN2CCc3cc(OCCCF)ccc3C2)cc1 (centres unmarked) [Example 1.013] |
| 0.273 µM | CCOc1ccc2c(c1)CCN(Cc1ccc(C(C)NC(C)=O)cc1)C2 (centres unmarked) [Example 1.016] |
| 0.06 µM | CCCOc1ccc2c(c1)CCN(Cc1ccc(C(C)NC(C)=O)cc1)C2 (centres unmarked) [Example 1.017] |
| 0.407 µM | CCOc1cccc2c1CCN(Cc1ccc(C(C)NC(C)=O)cc1)C2 (centres unmarked) [Example 1.018] |
| 0.326 µM | CCCOc1cccc2c1CCN(Cc1ccc(C(C)NC(C)=O)cc1)C2 (centres unmarked) [Example 1.019] |
| 0.126 µM | CC(=O)NC(C)c1ccc(CN2CCc3c(ccc(OCC4CC4)c3Br)C2)cc1 (centres unmarked) [Example 1.022] |
| 0.133 µM | COc1c(OCC2CC2)ccc2c1CCN(Cc1ccc(C(C)NC(C)=O)cc1)C2 (centres unmarked) [Example 1.023] |
| 0.415 µM | COc1ccc2c(c1Cl)CCN(Cc1ccc(C(C)NC(C)=O)cc1)C2 (centres unmarked) [Example 1.024] |
| 0.049 µM | CC(=O)NC(C)c1ccc(CN2CCc3c(ccc(OCC4CC4(F)F)c3Cl)C2)cc1 (centres unmarked) [Example 1.025] |
| 0.043 µM | CC(=O)NC(C)c1ccc(CN2CCc3c(ccc(OCC4CC4)c3Cl)C2)cc1 (centres unmarked) [Example 1.026] |
| 0.699 µM | CC(=O)NC(C)c1ccc(CN2CCc3c(cccc3C(F)F)C2)cc1 (centres unmarked) [Example 1.027] |
| 0.058 µM | CC(=O)NC(C)c1ccc(CN2CCc3c(ccc(OCC(C)C)c3Cl)C2)cc1 (centres unmarked) [Example 1.030] |
| 0.076 µM | CC(=O)NC(C)c1ccc(CN2CCc3c(ccc(OCC4CC4(F)F)c3Br)C2)cc1 (centres unmarked) [Example 1.031] |

| IC50 | Compound |
| --- | --- |
| 0.263 µM | CCOc1ccc2c(c1Cl)CCN(Cc1ccc(C(C)NC(C)=O)cc1)C2 (centres unmarked) [Example 1.032] |
| 0.044 µM | CC(=O)NC(C)c1ccc(CN2CCc3c(ccc(OCC4CCC4)c3Cl)C2)cc1 (centres unmarked) [Example 1.033] |
| 0.054 µM | CC(=O)NC(C)c1ccc(CN2CCc3c(ccc(OCCC(F)(F)F)c3Cl)C2)cc1 (centres unmarked) [Example 1.034] |
| 0.061 µM | CC(=O)NC(C)c1ccc(CN2CCc3c(ccc(OCCC4CC4)c3Cl)C2)cc1 (centres unmarked) [Example 1.035] |
| 0.08 µM | CC(=O)NC(C)c1ccc(CN2CCc3c(ccc(OC4CCC4)c3Cl)C2)cc1 (centres unmarked) [Example 1.037] |
| 0.218 µM | CC(=O)NC(C)c1ccc(CN2CCc3c(ccc(OCC(F)F)c3Cl)C2)cc1 (centres unmarked) [Example 1.038] |
| 0.057 µM | CC(=O)NC(C)c1ccc(CN2CCc3c(ccc(OCCCF)c3Cl)C2)cc1 (centres unmarked) [Example 1.039] |
| 0.063 µM | C[C@H](NC(=O)C1CC1)c1ccc(CN2CCc3c(ccc(OCC4CC4(F)F)c3Cl)C2)cc1 (some centres unmarked) [Example 1.049] |
| 0.12 µM | C[C@H](NC(=O)C1CC1)c1ccc(CN2CCc3c(ccc(OCC4CC4)c3Cl)C2)cc1 [Example 1.050] |
| 0.055 µM | CC(=O)N[C@@H](C)c1ccc(CN2CCc3c(ccc(OCC4(C(F)(F)F)CC4)c3Cl)C2)cc1 [Example 1.062] |
| 0.045 µM | CC(=O)N[C@@H](C)c1ccc(CN2CCc3cc(OCCC(F)F)ccc3C2)cc1 [Example 1.063] |
| 0.104 µM | COc1c(OCC2CC2(F)F)ccc2c1CCN(Cc1ccc([C@H](C)NC(C)=O)cc1)C2 (some centres unmarked) [Example 1.064] |
| 0.211 µM | COc1c(OCCCF)ccc2c1CCN(Cc1ccc([C@H](C)NC(C)=O)cc1)C2 [Example 1.065] |
| 0.111 µM | COc1c(OCCC(F)(F)F)ccc2c1CCN(Cc1ccc([C@H](C)NC(C)=O)cc1)C2 [Example 1.066] |
| 0.233 µM | CCOc1ccc2c(c1OC)CCN(Cc1ccc([C@H](C)NC(C)=O)cc1)C2 [Example 1.067] |
| 0.07 µM | COc1c(OCC(C)C)ccc2c1CCN(Cc1ccc([C@H](C)NC(C)=O)cc1)C2 [Example 1.068] |
| 0.418 µM | COc1c(OC(C)C)ccc2c1CCN(Cc1ccc([C@H](C)NC(C)=O)cc1)C2 [Example 1.069] |

Source: patent US9340510B2, “Tetrahydroisoquinoline derivatives, pharmaceutical compositions and uses thereof” (Boehringer Ingelheim International GmbH, priority 2014, dated 2016)
